Results from patent publication US7897772B2, “Acid addition salt of irinotecan” (priority 2004, dated 2011).
Structures can show the parent of a compound that is named as a salt.

Legend:
[1] = Dissolution of 100 mg/mL salt suspensions on heating and later crystal deposition at 25° C. (Example 2); format: physicochemical; conditions: for Dissolution on heating: 100 mg/mL
Procedure: The thus-produced irinotecan nitric acid addition salt solution was stirred at 25° C. After stirring of the solution for about 42 hours, crystals of the irinotecan nitric acid addition salt were deposited.

[2] = Dissolution of irinotecan acid addition salts in water at 100 mg/mL at room temperature and state of the solution after 6 days of stirring (Example 1); format: physicochemical; conditions: for Dissolution of the salt in water at room temperature: salt content adjusted to 100 mg/mL, no heating
Procedure: To an aqueous suspension of irinotecan (1-ethyl-10-[4-(1-piperidino)-1-piperidino]carbonyloxycamptothecin) produced through the method disclosed in Patent Document 1, each acid species was added, to thereby produce a corresponding irinotecan acid addition salt. The irinotecan acid addition salt content was adjusted to 100 mg/mL. […] Each of the aqueous solutions employing sulfuric acid, phosphoric acid methanesulfonic acid, citric acid, maleic acid, and succinic acid, respectively, was filtered by a membrane filter, and the filtrate was stirred at room temperature (25° C.). After continuous stirring for 6 days, the aqueous solution was visually observed so as to evaluate the state of the solution.

CCc1c2c(nc3ccc(OC(=O)N4CCC(N5CCCCC5)CC4)cc13)-c1cc3c(c(=O)n1C2)COC(=O)[C@]3(O)CC [Irinotecan nitric acid addition salt, irinotecan nitric acid salt]
Stirring time after which crystals were deposited ([1]; 100 mg/mL solution dissolved by heating, then stirred at 25° C.): about 42 hours | Dissolution on heating ([1]; 70° C. under stirring for three minutes): completely dissolved | State of the Solution after Day 6 (footnote symbol: salt not dissolved) ([2]; 100 mg/mL in water at room temperature): *1 | Dissolution of the salt in water at room temperature ([2]; listed as nitric acid): not dissolved in water at room temperature

CCc1c2c(nc3ccc(OC(=O)N4CCC(N5CCCCC5)CC4)cc13)-c1cc3c(c(=O)n1C2)COC(=O)[C@]3(O)CC [Irinotecan acetic acid addition salt, reference compound]
Dissolution on heating ([1]; stirred at 100° C. for 30 minutes): maintained undissolved | Dissolution of the salt in water at room temperature ([2]; listed as acetic acid): not dissolved in water at room temperature
